Test results reported in the NIST ThermoML archive (doi:10.1016/j.jct.2005.08.015).
Numbers after ± are expanded uncertainties.

Assay: of the first substance listed, at infinite dilution; xn = mol fraction of the nth substance listed
Details: Liquid, vibrating tube densimetry, x1 = 0

OCC(O)CO [glycerol] + O
Details	partial molar volume [m3/mol]
298.21 K, 640 kPa	7.093e-05 ± 8e-08
298.21 K, 29800 kPa	7.103e-05 ± 8e-08
298.22 K, 15170 kPa	7.097e-05 ± 8e-08
318.17 K, 470 kPa	7.205e-05 ± 8e-08
318.17 K, 14770 kPa	7.195e-05 ± 8e-08
318.17 K, 30260 kPa	7.194e-05 ± 8e-08
338.16 K, 440 kPa	7.304e-05 ± 8e-08
338.16 K, 15150 kPa	7.288e-05 ± 8e-08
338.16 K, 30360 kPa	7.277e-05 ± 8e-08
373.13 K, 15180 kPa	7.444e-05 ± 1e-07
373.13 K, 30110 kPa	7.428e-05 ± 8e-08
373.14 K, 1980 kPa	7.463e-05 ± 8e-08
408.15 K, 30120 kPa	7.586e-05 ± 1e-07
408.16 K, 1830 kPa	7.644e-05 ± 1e-07
408.16 K, 14970 kPa	7.616e-05 ± 1e-07
441.99 K, 1850 kPa	7.825e-05 ± 1e-07
442.03 K, 15670 kPa	7.795e-05 ± 1.2e-07
442.13 K, 29820 kPa	7.764e-05 ± 1e-07
473.15 K, 1960 kPa	8e-05 ± 1.2e-07
473.15 K, 15740 kPa	7.962e-05 ± 1e-07
473.16 K, 30290 kPa	7.92e-05 ± 1e-07
498.15 K, 3000 kPa	8.129e-05 ± 1.2e-07
498.15 K, 30210 kPa	8.047e-05 ± 1.2e-07
498.16 K, 15930 kPa	8.087e-05 ± 1.2e-07
523.15 K, 16150 kPa	8.212e-05 ± 1.4e-07
523.16 K, 5030 kPa	8.238e-05 ± 1.6e-07
523.16 K, 30280 kPa	8.184e-05 ± 1.4e-07
548.17 K, 7070 kPa	8.292e-05 ± 1.6e-07
548.18 K, 18040 kPa	8.309e-05 ± 1.6e-07
548.18 K, 30570 kPa	8.347e-05 ± 1.4e-07
573.14 K, 30040 kPa	8.344e-05 ± 1.8e-07
573.18 K, 10150 kPa	8.171e-05 ± 1.8e-07
573.19 K, 15080 kPa	8.249e-05 ± 1.8e-07
573.19 K, 19940 kPa	8.3e-05 ± 1.6e-07
573.25 K, 24690 kPa	8.32e-05 ± 1.8e-07

OCCO [1,2-ethanediol] + O
Details	partial molar volume [m3/mol]
298.21 K, 640 kPa	5.462e-05 ± 6e-08
298.21 K, 29790 kPa	5.452e-05 ± 4e-08
298.23 K, 15130 kPa	5.457e-05 ± 6e-08
318.17 K, 470 kPa	5.548e-05 ± 6e-08
318.17 K, 14770 kPa	5.53e-05 ± 6e-08
318.17 K, 30150 kPa	5.516e-05 ± 6e-08
338.16 K, 440 kPa	5.63e-05 ± 6e-08
338.16 K, 15150 kPa	5.604e-05 ± 6e-08
338.16 K, 30360 kPa	5.584e-05 ± 6e-08
373.12 K, 30010 kPa	5.724e-05 ± 6e-08
373.14 K, 15170 kPa	5.754e-05 ± 6e-08
373.15 K, 1960 kPa	5.78e-05 ± 6e-08
408.15 K, 30070 kPa	5.89e-05 ± 8e-08
408.16 K, 1760 kPa	5.969e-05 ± 6e-08
408.16 K, 15000 kPa	5.932e-05 ± 6e-08
441.98 K, 1950 kPa	6.178e-05 ± 8e-08
442.03 K, 15670 kPa	6.123e-05 ± 8e-08
442.04 K, 29810 kPa	6.072e-05 ± 8e-08
473.15 K, 1900 kPa	6.408e-05 ± 8e-08
473.15 K, 30250 kPa	6.266e-05 ± 8e-08
473.16 K, 15750 kPa	6.337e-05 ± 8e-08
498.15 K, 15970 kPa	6.53e-05 ± 8e-08
498.15 K, 30110 kPa	6.448e-05 ± 8e-08
498.16 K, 2930 kPa	6.621e-05 ± 8e-08
523.16 K, 5030 kPa	6.856e-05 ± 8e-08
523.16 K, 16160 kPa	6.754e-05 ± 8e-08
523.16 K, 30260 kPa	6.653e-05 ± 8e-08
548.17 K, 7030 kPa	7.13e-05 ± 1e-07
548.18 K, 18020 kPa	6.994e-05 ± 1e-07
548.18 K, 30300 kPa	6.88e-05 ± 1e-07
573.14 K, 30090 kPa	7.119e-05 ± 1e-07
573.18 K, 10040 kPa	7.399e-05 ± 1e-07
573.19 K, 15080 kPa	7.318e-05 ± 1e-07
573.19 K, 19910 kPa	7.25e-05 ± 8e-08
573.23 K, 24730 kPa	7.182e-05 ± 8e-08

OCCCO [propan-1,3-diol] + O
Details	partial molar volume [m3/mol]
298.22 K, 640 kPa	7.193e-05 ± 4e-08
298.22 K, 29780 kPa	7.167e-05 ± 4e-08
298.23 K, 15160 kPa	7.183e-05 ± 4e-08
318.17 K, 480 kPa	7.262e-05 ± 4e-08
318.17 K, 14770 kPa	7.234e-05 ± 4e-08
318.17 K, 30240 kPa	7.212e-05 ± 4e-08
338.16 K, 440 kPa	7.345e-05 ± 4e-08
338.16 K, 15130 kPa	7.315e-05 ± 4e-08
338.16 K, 30290 kPa	7.289e-05 ± 4e-08
373.13 K, 30110 kPa	7.451e-05 ± 4e-08
373.14 K, 15170 kPa	7.496e-05 ± 4e-08
373.16 K, 1960 kPa	7.536e-05 ± 4e-08
408.15 K, 14940 kPa	7.727e-05 ± 4e-08
408.15 K, 30010 kPa	7.668e-05 ± 4e-08
408.16 K, 1870 kPa	7.783e-05 ± 4e-08
442.02 K, 1820 kPa	8.074e-05 ± 4e-08
442.03 K, 15700 kPa	7.994e-05 ± 4e-08
442.08 K, 29800 kPa	7.924e-05 ± 4e-08
473.15 K, 1940 kPa	8.402e-05 ± 4e-08
473.16 K, 15710 kPa	8.291e-05 ± 4e-08
473.16 K, 30280 kPa	8.188e-05 ± 4e-08
498.15 K, 15940 kPa	8.561e-05 ± 4e-08
498.16 K, 2960 kPa	8.701e-05 ± 4e-08
498.16 K, 30110 kPa	8.438e-05 ± 4e-08
523.16 K, 5030 kPa	9.047e-05 ± 4e-08
523.16 K, 16160 kPa	8.885e-05 ± 4e-08
523.16 K, 30260 kPa	8.723e-05 ± 4e-08
548.18 K, 7070 kPa	9.443e-05 ± 4e-08
548.18 K, 18040 kPa	9.233e-05 ± 4e-08
548.18 K, 30580 kPa	9.05e-05 ± 4e-08
573.17 K, 30240 kPa	9.414e-05 ± 4e-08
573.18 K, 10100 kPa	9.925e-05 ± 4e-08
573.19 K, 19920 kPa	9.645e-05 ± 4e-08

CC(O)CO (stereo unspecified) [1,2-propanediol] + O
Details	partial molar volume [m3/mol]
298.21 K, 640 kPa	7.123e-05 ± 6e-08
298.22 K, 15160 kPa	7.119e-05 ± 6e-08
298.22 K, 29790 kPa	7.112e-05 ± 6e-08
318.17 K, 500 kPa	7.214e-05 ± 6e-08
318.17 K, 14770 kPa	7.192e-05 ± 6e-08
318.17 K, 30140 kPa	7.175e-05 ± 4e-08
338.16 K, 440 kPa	7.321e-05 ± 4e-08
338.16 K, 15160 kPa	7.291e-05 ± 6e-08
338.16 K, 30320 kPa	7.263e-05 ± 4e-08
373.13 K, 15150 kPa	7.509e-05 ± 6e-08
373.13 K, 29980 kPa	7.46e-05 ± 4e-08
373.14 K, 2010 kPa	7.548e-05 ± 6e-08
408.15 K, 29980 kPa	7.718e-05 ± 4e-08
408.16 K, 1760 kPa	7.843e-05 ± 4e-08
408.16 K, 15000 kPa	7.781e-05 ± 4e-08
441.99 K, 1840 kPa	8.185e-05 ± 4e-08
442.03 K, 15650 kPa	8.093e-05 ± 6e-08
442.03 K, 29800 kPa	8.01e-05 ± 6e-08
473.15 K, 1890 kPa	8.576e-05 ± 6e-08
473.15 K, 15760 kPa	8.445e-05 ± 6e-08
473.16 K, 30230 kPa	8.325e-05 ± 4e-08
498.15 K, 2930 kPa	8.947e-05 ± 6e-08
498.15 K, 15970 kPa	8.777e-05 ± 8e-08
498.15 K, 30110 kPa	8.627e-05 ± 8e-08
523.16 K, 4980 kPa	9.38e-05 ± 8e-08
523.16 K, 16130 kPa	9.172e-05 ± 6e-08
523.16 K, 30320 kPa	8.966e-05 ± 6e-08
548.17 K, 7020 kPa	9.914e-05 ± 8e-08
548.18 K, 18020 kPa	9.621e-05 ± 8e-08
548.18 K, 30440 kPa	9.367e-05 ± 1e-07
573.14 K, 30360 kPa	9.86e-05 ± 1e-07
573.18 K, 10120 kPa	0.000106 ± 8e-08
573.19 K, 19990 kPa	0.0001018 ± 8e-08
